Measurements as given in patent US11673878B2, “Benzazepine derivatives” (OTSUKA PHARMACEUTICAL CO., LTD., priority 2017, dated 2023).

Columns and labels:
[1] = molecular target: T1, rat vasopressin V1a receptor (Rattus norvegicus, UniProt P30560); experiment: Binding inhibition test for rat V1a receptor (3H-AVP, rat hepatic membrane); conditions: inhibition of 3H-AVP binding, rat hepatic membrane V1a receptor fractions, 4° C., 2 hours; read-out: Binding affinity rV1a (IC50)
T1 construct: V1a receptor fractions derived from rat hepatic membrane; from tissue; host or cells: rat liver (hepatic membrane)
Procedure: (§1) Various compounds were studied in binding affinities for vasopressin receptors with an indicator of binding inhibition of rat vasopressin V1a receptor and vasopressin V2 receptor of ^3H-arginine vasopressin (AVP) (NET800, available from PerkinElmer Inc., Life Sciences).
(1) Binding Inhibition Test for Rat V1a Receptor (rV1aR)
50 μg of V1a receptor fractions derived from rat hepatic membrane were diluted with a reaction solution (100 mM Tris-HCl (pH 8.0), 0.1% BSA, 5 mM MgCl2, 1 mM EDTA) and added to each well of a 96-well plate. A compound was added to each well in various concentrations (0.3 nM to 100 nM), and ^3H-AVP was added thereto in the range of 1 nM to 3 nM. Reactions were carried out at 4° C. for 2 hours on the plate. Via receptor fractions were collected with a 96-well glass filter (Unifilter GF/B) after the reactions and washed with a washing solution (10 mM Tris-HCl (pH 8.0), 5 mM MgCl2, 1 mM EDTA) three times, and then the radioactivity of ^3H-AVP was measured with a scintillation counter.
(§2) ^3H-AVP binding rate in the presence of a compound was calculated by the following equation. Binding rate (%)=(B−NSB)/(TB−NSB)×100 (B: Binding amount of ^3H-AVP in the presence of each compound, NSB: Binding amount of ^3H-AVP in the presence of 1 μM of unlabeled AVP, TB: Binding amount of ^3H-AVP in the absence of 1 μM of unlabeled AVP)

[2] = molecular target: T2, rat vasopressin V2 receptor (Rattus norvegicus, UniProt Q00788); experiment: Binding inhibition test for rat V2 receptor (3H-AVP, rV2R-CHO cells); conditions: inhibition of 3H-AVP binding, 4° C., 2 hours, read-out: Binding affinity rV2 (IC50)
T2 construct: expressed in transfected cells; host or cells: CHO cells (rV2R-CHO)
Procedure: as §1
(2) Binding Inhibition Test for Rat V2 Receptor (rV2R)
Rat V2 receptor-expressed CHO cells (rV2R—CHO) were incubated on 10% FBS-containing DMEM/F12 in a 24-well plate, and each cell was washed with D-PBS twice. A reaction solution (D-PBS containing 0.1% BSA and 0.05% sodium azide) comprising a compound in various concentrations (0.3 nM to 100 nM) was added to each well, and a certain amount of ^3H-AVP was added thereto (100-fold dilution). Reactions were carried out at 4° C. for 2 hours on the plate. Then, each well was washed with D-PBS twice and 0.1N NaOH was added to each well. The cells were collected, and the radioactivity of ^3H-AVP was measured with a scintillation counter.
as §2

[3] = Metabolic stability test in human liver microsomes; format: in vitro ADME; conditions: pH 7.4; human liver microsomes 1 mg/mL, test compound 1 μmol/L, NADPH and NADH, 37° C., n = 4; read-out: CLint (μL/min/mg) mean ± SD
Procedure: Reaction System and Incubation
According to methods of Obach and Jones, et al. (methods described in R. S. Obach, Drug Metab. Dispos. 1999 (27): 1350-1359 and H. Jones and J. B. Houston, Drug Metab. Dispos. 2004 (32): 973-982), the reaction system shown below was prepared and metabolic stabilities of test compounds (the present compounds and, tolvaptan) were evaluated using the reaction system shown below. Human liver microsomes purchased from Corning Inc. were used. Test compounds were dissolved in DMSO at the concentration of 10 mmol/L and then diluted with acetonitrile to prepare a 100 μmol/L solution for use in the test. The 100 μmol/L solutions were used in the experiment.
Human liver microsome 1 mg/mL
Co-factor (NADPH and NADH) 1 mmol/L each
Magnesium chloride 5 mmol/L
100 mmol/L Potassium phosphate buffer (pH 7.4)
The reaction mixture without co-factors was pre-incubated at 37° C. for 5 minutes, and then the reaction was initiated by the addition of the co-factors. The mixture was incubated for 0, 5, 10, 20, 30, and 60 minutes after the addition of the co-factors. An aliquot of the reaction mixture was removed and added to a methanol solution containing an internal standard (IS) and mixed to terminate the reaction at each predetermined time.
After the reaction was terminated, the mixture was separated by centrifugation and the supernatant was injected into a liquid chromatograph-tandem mass spectrometer (LC-MS/MS) to measure unchanged substances remained in the reaction system. The mass spectrometer was operated in a positive ion mode of the electrospray ionization (ESI) method. Unchanged substances and the IS were detected by multiple reaction monitoring (MRM) transitions using selected precursor and product ions set.
The remaining ratios of test compounds were calculated by the following equation. Remaining ratio=(Peak area ratio of a test compound to IS at t minutes after incubation)÷(Peak area ratio of a test compound to IS at 0 minute)
The slope of X-axis (the incubation time) and Y-axis (logarithm of the remaining ratio) was calculated by a non-linear least square method. Hepatic intrinsic clearance (CLint) was calculated by the following equation. CLint(μL/min/mg)=−(Slope(min^−1))÷1(mg/mL)×1000

[4] = Pharmacokinetics study in mice, single oral dose; format: in vivo; conditions: mouse; male ICR mice, single-dose oral administration of 30 mg/kg, plasma
Procedure: A pharmacokinetics (PK) study was performed using male ICR mice to compare the oral absorption properties of the present compounds with tolvaptan. A test compound was suspended in a 1% hydroxypropyl methylcellulose (HPMC) solution to be adjusted to the concentration of 4.5 mg/mL. The present compounds were used as the forms obtained in the above examples (including the amorphous form) for a test compound, or used after spray drying, if needed.
Male ICR mice (7-week old) were freely fed food and water and weighed on an electronic scale. Then, a test compound was orally administered at the dose of 30 mg/kg […]. After the oral administration, blood was collected from the abdominal vena cava under isoflurane anesthesia using a 1 mL heparinized syringe with a 26 G injection needle. Blood was separated by centrifugation at 4° C., 3000 rpm for 10 minutes to give plasma in a supernatant. The plasma concentration of a test compound was measured by LC-MS/MS.
The following PK parameters were calculated using the mean plasma concentrations of unchanged substances obtained from two animals at each time point.
Cmax: Maximum plasma concentration (μg/mL)
tmax: Time-to-maximum plasma concentration (h)
AUCinf: Area under the plasma concentration-time curve from administration to infinite time (μg h/mL)

T1 sequence (P30560 whole entry): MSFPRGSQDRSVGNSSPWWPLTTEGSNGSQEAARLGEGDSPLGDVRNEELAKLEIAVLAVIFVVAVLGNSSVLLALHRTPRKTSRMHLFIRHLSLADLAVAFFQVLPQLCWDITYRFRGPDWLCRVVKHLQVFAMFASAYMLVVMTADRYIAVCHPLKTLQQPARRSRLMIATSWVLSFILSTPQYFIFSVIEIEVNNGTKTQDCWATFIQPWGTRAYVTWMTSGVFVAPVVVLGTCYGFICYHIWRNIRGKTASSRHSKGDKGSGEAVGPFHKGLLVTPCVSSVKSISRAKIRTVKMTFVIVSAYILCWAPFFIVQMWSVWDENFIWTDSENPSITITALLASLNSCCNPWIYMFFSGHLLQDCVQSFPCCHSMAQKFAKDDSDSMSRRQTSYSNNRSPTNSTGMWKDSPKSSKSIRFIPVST
T2 sequence (Q00788 whole entry): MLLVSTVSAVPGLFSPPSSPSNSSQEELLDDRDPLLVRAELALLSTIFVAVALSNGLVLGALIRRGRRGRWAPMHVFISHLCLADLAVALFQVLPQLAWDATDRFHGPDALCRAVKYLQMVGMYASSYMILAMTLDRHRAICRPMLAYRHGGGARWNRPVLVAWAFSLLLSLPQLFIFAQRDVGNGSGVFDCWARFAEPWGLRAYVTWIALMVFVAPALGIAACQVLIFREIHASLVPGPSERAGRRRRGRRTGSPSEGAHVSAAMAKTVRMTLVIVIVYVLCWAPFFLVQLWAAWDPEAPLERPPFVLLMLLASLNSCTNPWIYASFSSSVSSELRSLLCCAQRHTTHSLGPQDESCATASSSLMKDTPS

## O=C(Nc1ccc(C(=O)N2CCC(F)(F)[C@](O)(CO)c3cc(Cl)ccc32)cn1)c1cccnc1-c1ccccc1 [Example 97, N-{5-[(5R)-7-chloro-4,4-difluoro-5-hydroxy-5-(hydroxymethyl)-2,3,4,5-tetrahydro-1H-1-benzazepine-1-carbonyl]pyridin-2-yl}-2-phenylpyridine-3-carboxamide]
[1]
  IC50: 5.4 nM
[2]
  IC50: 1.4 nM
[3]
  microsomal CLint at 1 μmol/L: 6.98 ± 4.77 µL/min/mg
[4]
  AUC(0-inf): 8310 ng·h/mL
  Cmax: 3130 ng/mL
  Tmax: 1 h

## O=C(Nc1ccc(C(=O)N2CCC(F)(F)[C@](O)(CO)c3cc(Cl)ccc32)cc1)c1cc(F)ccc1C(F)(F)F [Example 127, N-{4-[(5R)-7-chloro-4,4-difluoro-5-hydroxy-5-(hydroxymethyl)-2,3,4,5-tetrahydro-1H-1-benzazepine-1-carbonyl]phenyl}-5-fluoro-2-(trifluoromethyl)benzamide]
[1]
  IC50: 7.2 nM
[2]
  IC50: 1.8 nM
[3]
  microsomal CLint at 1 μmol/L: < 4 µL/min/mg
[4]
  AUC(0-inf): 93800 ng·h/mL
  Cmax: 7950 ng/mL
  Tmax: 1 h

## O=C(Nc1ccc(C(=O)N2CCC(F)(F)[C@](O)(CO)c3cc(Cl)ccc32)cc1F)c1cc(F)ccc1C(F)(F)F [Example 132]
[1]
  IC50: 5.2 nM
[2]
  IC50: 2.3 nM
[3]
  microsomal CLint at 1 μmol/L: < 4 µL/min/mg
[4]
  AUC(0-inf): 56500 ng·h/mL
  Cmax: 3590 ng/mL
  Tmax: 4 h

## O=C(Nc1ccc(C(=O)N2CCC(F)(F)[C@](O)(CO)c3cc(Cl)ccc32)cc1)c1cc(F)ccc1-c1ccccc1 [Example 153, N-{4-[(5R)-7-chloro-4,4-difluoro-5-hydroxy-5-(hydroxymethyl)-2,3,4,5-tetrahydro-1H-1-benzazepine-1-carbonyl]phenyl}-4-fluoro-[1,1′-biphenyl]-2-carboxamide]
[1]
  IC50: 3.6 nM
[2]
  IC50: 4.5 nM
[3]
  microsomal CLint at 1 μmol/L: 1.91 ± 2.22 µL/min/mg
[4]
  AUC(0-inf): 34000 ng·h/mL
  Cmax: 5480 ng/mL
  Tmax: 1 h

## O=C(Nc1ccc(C(=O)N2CCC(F)(F)[C@](O)(CO)c3cc(Cl)ccc32)cc1F)c1cc(F)ccc1C(F)F [Example 157, N-{4-[(5R)-7-chloro-4,4-difluoro-5-hydroxy-5-(hydroxymethyl)-2,3,4,5-tetrahydro-1H-1-benzazepine-1-carbonyl]-2-fluorophenyl}-2-(difluoromethyl)-5-fluorobenzamide]
[1]
  IC50: 12 nM
[2]
  IC50: 3.2 nM
[3]
  microsomal CLint at 1 μmol/L: < 4 µL/min/mg
[4]
  AUC(0-inf): 80500 ng·h/mL
  Cmax: 6210 ng/mL
  Tmax: 1 h

## O=C(Nc1ccc(C(=O)N2CCC(F)(F)[C@](O)(CO)c3cc(Cl)ccc32)cn1)c1cc(F)ccc1-c1ccccc1F [Example 165, N-{5-[(5R)-7-chloro-4,4-difluoro-5-hydroxy-5-(hydroxymethyl)-2,3,4,5-tetrahydro-1H-1-benzazepine-1-carbonyl]pyridin-2-yl}-2′,4-difluoro-[1,1′-biphenyl]-2-carboxamide]
[1]
  IC50: 1.7 nM
[2]
  IC50: 3.4 nM
[3]
  microsomal CLint at 1 μmol/L: 3.61 ± 2.43 µL/min/mg
[4]
  AUC(0-inf): 41500 ng·h/mL
  Cmax: 7720 ng/mL
  Tmax: 1 h

## O=C(Nc1ccc(C(=O)N2CCC(F)(F)[C@](O)(CO)c3cc(Cl)ccc32)cc1F)c1cc(F)ccc1-c1ccccc1F [Example 168, N-{4-[(5R)-7-chloro-4,4-difluoro-5-hydroxy-5-(hydroxymethyl)-2,3,4,5-tetrahydro-1H-1-benzazepine-1-carbonyl]-2-fluorophenyl}-2′,4-difluoro-[1,1′-biphenyl]-2-carboxamide]
[1]
  IC50: 2.2 nM
[2]
  IC50: 4.7 nM
[3]
  microsomal CLint at 1 μmol/L: 7.48 ± 1.5 µL/min/mg
[4]
  AUC(0-inf): 40900 ng·h/mL
  Cmax: 7110 ng/mL
  Tmax: 1 h

## O=C(Nc1ccc(C(=O)N2CCC(F)(F)[C@](O)(CO)c3cc(Cl)ccc32)cc1)c1cc(F)ccc1-c1ccccc1F [Example 169, N-{4-[(5R)-7-chloro-4,4-difluoro-5-hydroxy-5-(hydroxymethyl)-2,3,4,5-tetrahydro-1H-1-benzazepine-1-carbonyl]phenyl}-2′,4-difluoro-[1,1′-biphenyl]-2-carboxamide]
[1]
  IC50: 1.6 nM
[2]
  IC50: 3.3 nM
[3]
  microsomal CLint at 1 μmol/L: 5.09 ± 0.32 µL/min/mg
[4]
  AUC(0-inf): 32200 ng·h/mL
  Cmax: 5650 ng/mL
  Tmax: 1 h

## O=C1c2cc(F)ccc2CCN1c1ccc(C(=O)N2CCC(F)(F)[C@](O)(CO)c3cc(Cl)ccc32)cc1 [Example 187, 2-{4-[(5R)-7-chloro-4,4-difluoro-5-hydroxy-5-(hydroxymethyl)-2,3,4,5-tetrahydro-1H-1-benzazepine-1-carbonyl]phenyl}-7-fluoro-1,2,3,4-tetrahydroisoquinolin-1-one]
[1]
  IC50: 2.6 nM
[2]
  IC50: 0.4 nM
[3]
  microsomal CLint at 1 μmol/L: < 4 µL/min/mg
[4]
  AUC(0-inf): 5440 ng·h/mL
  Cmax: 2040 ng/mL
  Tmax: 1 h
